For 38 compounds, IC50 results are on record in patent publication US10233186B2, “Inhibitors of activin receptor-like kinase” (BLUEPRINT MEDICINES CORPORATION, priority 2016, dated 2019).

Read-outs that look alike come from different tables or passages of the source. Where only a bound is given, the exact number is not on record here.

The target in experiment [1] is T1, human ALK2 R206H (Homo sapiens, UniProt Q04771, R206H).
T1 construct: expressed in transfected cells; host or cells: HEK293 (ATCC CRL1573), lentivirus transduction, blasticidin selection
T1 sequence (Q04771 21-509 R206H): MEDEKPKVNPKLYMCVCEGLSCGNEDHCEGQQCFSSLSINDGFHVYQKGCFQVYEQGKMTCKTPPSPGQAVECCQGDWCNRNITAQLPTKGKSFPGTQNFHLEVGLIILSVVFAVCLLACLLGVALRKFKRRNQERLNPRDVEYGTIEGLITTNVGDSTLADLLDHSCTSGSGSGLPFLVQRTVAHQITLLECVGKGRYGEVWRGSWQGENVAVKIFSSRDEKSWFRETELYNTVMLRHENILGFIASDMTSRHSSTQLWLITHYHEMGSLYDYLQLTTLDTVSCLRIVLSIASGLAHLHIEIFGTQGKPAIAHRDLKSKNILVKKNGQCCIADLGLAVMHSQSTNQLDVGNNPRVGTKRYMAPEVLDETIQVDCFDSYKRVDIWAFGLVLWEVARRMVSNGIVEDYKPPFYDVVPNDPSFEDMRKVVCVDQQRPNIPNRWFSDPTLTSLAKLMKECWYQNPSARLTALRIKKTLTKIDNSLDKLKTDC
The experiment can be described thus: Cell-based ALK2-R206H cell activity assay (Smad1-Ser463/Ser465 phosphorylation by AlphaLISA in HEK293-ALK2-R206H cells). As for the experimental part:
A HEK293 (ATCC, Cat^# CRL1573) based stable cell line expressing human ALK2 R206H cDNA (synthesized by GeneScript, Piscataway, N.J.) and a FLAG tag at the C-terminus was generated by lentivirus transduction and subsequent blasticidin (Life Technologies, Cat^#-A1113902) selection at 10 μg/ml for >2 wks. This cell line was named HEK293-ALK2-R206H.
Test compounds were first diluted to 4 mM or 0.4 mM and then serially diluted 3-fold into 10 different concentrations using DMSO. […] Two μl of the diluted compounds were then dispensed into the HEK293-ALK2-R206H cell-containing wells of the microplates in duplicates. In this way, each compound was tested in 10 doses (3-fold serial dilution with the top concentration being 10 μM or 1 μM). Liquid handling was achieved using a Bravo Automated Liquid Handling Platform (Agilent Technologies). DMSO without compound was used as a negative control. The positive control was 1 μM LDN193189, a known bone morphogenetic protein (BMP inhibitor).
The 10-point dose response curve was used to calculate the IC50 values.
Blank values in the table indicate that the particular compound was not tested in this assay.
For orientation: Alpha assays give light when donor and acceptor beads are brought close together.

Experiment [2] deals with T2, ALK2 R206H (GST-tagged mutant ALK2) (Homo sapiens, UniProt Q04771, R206H).
T2 construct: purchased Carna Bioscience or ThermoFisher 09-148 or PV6232
T2 sequence (Q04771 21-509 R206H): T1 sequence (Q04771 21-509 R206H)
As to the kind of experiment: ALK binding assay (LANTHASCREEN TR-FRET competitive binding, displacement of Kinase Tracer 178). (In general: TR-FRET usually uses a lanthanide donor and a delayed reading to cut background.)

The mark [3] stands for this setting: read-out: Cell Line (Cell Assay IC50).
[4] abbreviates: ALK2 R206H, LANTHASCREEN TR-FRET competitive binding, read-out: Binding Assay (IC50).

Broadly, the IC50 is the concentration at which inhibition is half-maximal. Take `CCOC(=O)N1CCN(c2ccnn3cc(-c4ccc([C@@]5(C)CN(C(C)C)CCN5)cc4)cc23)CC1` [Compound 597]: the figures for the IC50 in experiment [1] (setting [3]) and in experiment [2] (setting [4]) were less than 0.1 µM and less than 0.01 µM, respectively.

In the case of `O=C(C1CC1)N1CCN(c2ccnn3cc(-c4ccc(C5CCNCC5)cc4)cc23)CC1` [Compound 122], the IC50 in experiment [1] (setting [3]) is less than 0.1 µM; in experiment [2] (setting [4]) it was less than 0.01 µM.

Regarding `CCN1CC(n2cc(-c3cc4c(N5CCN(C(=O)C6CC6)CC5)ccnn4c3)cn2)C1` [Compound 118], the IC50 in experiment [1] (setting [3]) is 0.1 to 0.5 µM; in experiment [2] (setting [4]), less than 0.01 µM.

For `CCOC1(c2ccc(-c3cc4c(N5CCN(C(=O)OCCC#N)CC5)ccnn4c3)nc2)CCN(C(C)C)CC1` [Compound 854], the IC50 in experiment [1] (setting [3]) is less than 0.1 µM; in experiment [2] (setting [4]), less than 0.01 µM.

Consider `N#C[C@H]1CC[C@H](C(=O)N2CCN(c3ccnn4cc(-c5ccc(C6CNCCO6)cc5)cc34)CC2)CC1` (stereo partly shown) [Compound 375], for which the values for the IC50 in experiment [1] (setting [3]) and in experiment [2] (setting [4]) were less than 0.1 µM and less than 0.01 µM, respectively.

For `CCNC(=O)N1CCN(c2ccnn3cc(-c4ccc(C5CCN(C(C)C)CC5)cn4)cc23)CC1` [Compound 290], the values for the IC50 in experiment [1] (setting [3]) and in experiment [2] (setting [4]) were less than 0.1 µM and less than 0.01 µM, respectively.

As to `CCO[C@@]1(c2ccc(-c3cc4c(N5CCN(C(=O)OC6COC6)CC5)ccnn4c3)cc2)CCCNC1` [Compound 816], the IC50 in experiment [1] (setting [3]) was less than 0.1 µM; in experiment [2] (setting [4]), less than 0.01 µM.

On to `CC(C)NC(=O)N1CCN(c2ccnn3cc(-c4ccc([C@@H]5CN(C(C)C)CC[C@H]5OC(F)F)cc4)cc23)CC1` [Compound 869], for which the IC50 in experiment [1] (setting [3]) was less than 0.1 µM; in experiment [2] (setting [4]), less than 0.01 µM.

As for `CCNC(=O)N1CCN(c2ccnn3cc(-c4ccc(N5CC6(C5)CN(C(C)C)C6)cc4)cc23)CC1` [Compound 328], the IC50 was 0.1 to 0.5 µM in experiment [1] (setting [3]) and less than 0.01 µM in experiment [2] (setting [4]).

For `O=C(C1CC1)N1CCN(c2ccnn3cc(-c4ccc(OC5CCNCC5)cc4)cc23)CC1` [Compound 160], the IC50 in experiment [1] (setting [3]) was 0.1 to 0.5 µM; in experiment [2] (setting [4]), less than 0.01 µM.

With `CCNC(=O)N1CCN(c2ccnn3cc(-c4ccc([C@@]5(OC)CCCN(C(C)C)C5)c(F)c4)cc23)CC1` [Compound 698], the IC50 was less than 0.1 µM in experiment [1] (setting [3]) and less than 0.01 µM in experiment [2] (setting [4]).

As to `CC(C)N1CC[C@H](c2ccc(-c3cc4c(N5CCN(C(=O)C6CC6)CC5)ccnn4c3)cc2F)C1` [Compound 284], the IC50 was less than 0.1 µM in experiment [1] (setting [3]) and less than 0.01 µM in experiment [2] (setting [4]).

Consider `O=C(C1CC1)N1CCN(c2ccnn3cc(-c4cnn(C5CCNC5)c4)cc23)CC1` (stereo not shown) [Compound 104], for which the figures for the IC50 in experiment [1] (setting [3]) and in experiment [2] (setting [4]) were 0.1 to 0.5 µM and less than 0.01 µM, respectively.

`CC(C)N1CCC(c2ccc(-c3cc4c(N5CCN(C(=O)O[C@H]6CCOC6)CC5)ccnn4c3)cc2)CC1` [Compound 667]: the IC50 in experiment [1] (setting [3]) is less than 0.1 µM; in experiment [2] (setting [4]), less than 0.01 µM.

On to `CC(C)N1CCC[C@@H](c2ccc(-c3cc4c(N5CCN(C(=O)O[C@H]6CCOC6)CC5)ccnn4c3)cc2)C1` [Compound 826], for which the IC50 in experiment [1] (setting [3]) is less than 0.1 µM; in experiment [2] (setting [4]), less than 0.01 µM.

Regarding `CO[C@]1(c2ccc(-c3cc4c(N5CCN(C(=O)C6CC6)CC5)ccnn4c3)nc2)CCCN(C(C)C)C1` [Compound 626], the IC50 in experiment [1] (setting [3]) is less than 0.1 µM; in experiment [2] (setting [4]) it was less than 0.01 µM.

As for `CCOC(=O)N1CCN(c2ccnn3cc(-c4ccc(C5CN(C(C)C)C5)cc4)cc23)CC1` [Compound 182], the IC50 was less than 0.1 µM in experiment [1] (setting [3]) and less than 0.01 µM in experiment [2] (setting [4]).

In the case of `CC(C)N1CC2(CN(c3ccc(-c4cc5c(N6CCN(C(=O)[C@H]7C[C@H](C#N)C7)CC6)ccnn5c4)cc3)C2)C1` [Compound 426], the IC50 was less than 0.1 µM in experiment [1] (setting [3]) and less than 0.01 µM in experiment [2] (setting [4]).

For `CCNC(=O)N1CCN(c2ccnn3cc(-c4ccc(C5CCN(C(C)C)CC5)c(F)c4)cc23)CC1` [Compound 354], the IC50 was less than 0.1 µM in experiment [1] (setting [3]) and less than 0.01 µM in experiment [2] (setting [4]).

For `O=C(C1CC1)N1CCN(c2ccnn3cc(-c4ccc(C5CCCN5)cn4)cc23)CC1` (stereo not shown) [Compound 453], the values for the concentration for half-maximal inhibition (IC50) in experiment [1] (setting [3]) and in experiment [2] (setting [4]) were less than 0.1 µM and less than 0.01 µM, respectively.

Consider `C[C@@H]1CN(c2ccnn3cc(-c4ccc(N5CCNCC5)nc4)cc23)CCN1C(=O)C1CC1` [Compound 170], for which the IC50 in experiment [1] (setting [3]) lay within 0.1 to 0.5 µM; in experiment [2] (setting [4]) it was 0.01 to 0.05 µM.

Regarding `CCNC(=O)N1CCN(c2ccnn3cc(-c4ccc(C5CN(C(C)C)CCN5)cc4)cc23)CC1` (stereo not shown) [Compound 537], the IC50 in experiment [1] (setting [3]) is less than 0.1 µM; in experiment [2] (setting [4]), less than 0.01 µM.

As to `CC(C)N1CCC(COC(F)F)(c2ccc(-c3cc4c(N5CCN(C(=O)OC6COC6)CC5)ccnn4c3)cc2)CC1` [Compound 891], the IC50 in experiment [1] (setting [3]) is less than 0.1 µM; in experiment [2] (setting [4]), less than 0.01 µM.

As for `O=C(C1CC1)N1CCN(c2ccnn3cc(-c4ccc(C5CCCN5)cn4)cc23)CC1` (stereo not shown) [Compound 452], the IC50 was less than 0.1 µM in experiment [1] (setting [3]) and less than 0.01 µM in experiment [2] (setting [4]).

In the case of `O=C(C1CC1)N1CCN(c2ccnn3cc(-c4cccc(C5CNCCO5)c4)cc23)CC1` (stereo not shown) [Compound 128], the IC50 was in the range of 0.1 to 0.5 µM in experiment [1] (setting [3]) and 0.01 to 0.05 µM in experiment [2] (setting [4]).

For the compound `CO[C@]1(c2ccc(-c3cc4c(N5CCN(C(=O)C6CC6)CC5)ccnn4c3)cc2F)CCCN(C(C)C)C1` [Compound 683], the figures for the IC50 in experiment [1] (setting [3]) and in experiment [2] (setting [4]) were less than 0.1 µM and less than 0.01 µM, respectively.

`CCN1CCN(c2ccc(-c3cc4c(N5CCN(C(=O)C(C)C)CC5)ccnn4c3)cc2)CC1` [Compound 223]: the IC50 in experiment [1] (setting [3]) is 0.1 to 0.5 µM; in experiment [2] (setting [4]), 0.01 to 0.05 µM.

With `CCNC(=O)N1CCN(c2ccnn3cc(-c4ccc([C@@H]5CCN(C(C)C)C5)cn4)cc23)CC1` [Compound 495], the IC50 in experiment [1] (setting [3]) was less than 0.1 µM; in experiment [2] (setting [4]), less than 0.01 µM.

In the case of `COC(=O)C1(c2ccc(-c3cc4c(N5CCN(C(=O)OC6COC6)CC5)ccnn4c3)cc2)CCN(C(C)C)CC1` [Compound 874], the IC50 was 0.1 to 0.5 µM in experiment [1] (Cell Line (Cell Assay IC50)) and less than 0.01 µM in experiment [2].

`CCN1CCC(c2ccc(-c3cc4c(N5CCN(C(=O)C6CC6)CC5)ccnn4c3)cc2)C1` (stereo not shown) [Compound 147]: the figures for the IC50 in experiment [1] (setting [3]) and in experiment [2] (setting [4]) were less than 0.1 µM and less than 0.01 µM, respectively.

For the compound `CCOC1(c2ccc(-c3cc4c(N5CCN(C(=O)NC(C)C)CC5)ccnn4c3)nc2)CCN(C2COC2)CC1` [Compound 858], the figures for the IC50 in experiment [1] (setting [3]) and in experiment [2] (setting [4]) were less than 0.1 µM and less than 0.01 µM, respectively.

In the case of `CC(C)NC(=O)N1CCN(c2ccnn3cc(-c4ccc(C5(C(F)(F)F)CCN(C(C)C)CC5)cc4)cc23)CC1` [Compound 738], the values for the IC50 in experiment [1] (setting [3]) and in experiment [2] (setting [4]) were less than 0.1 µM and less than 0.01 µM, respectively.

Consider `CN1CCN(c2ccc(-c3cc4c(N5CCN(C(=O)C6CC6)CC5)ccnn4c3)cc2)CC1` [Compound 153], for which the IC50 in experiment [1] (setting [3]) is 0.1 to 0.5 µM; in experiment [2] (setting [4]) it was less than 0.01 µM.

As for `O=C([C@H]1C[C@@H]1F)N1CCN(c2ccnn3cc(-c4ccc(N5CCNCC5)cc4)cc23)CC1` [Compound 184], the IC50 in experiment [1] (setting [3]) is less than 0.1 µM; in experiment [2] (setting [4]) it was less than 0.01 µM.

For the compound `CC(C)NC(=O)N1CCN(c2ccnn3cc(-c4ccc(C5(C)CCN(C(C)C)CC5)cc4)cc23)CC1` [Compound 628], the IC50 is less than 0.1 µM in experiment [1] (setting [3]) and less than 0.01 µM in experiment [2] (setting [4]).

Turning to `COC1(c2ccc(-c3cc4c(N5CCN(C(=O)NC(C)C)CC5)ccnn4c3)nc2)CCNCC1` [Compound 785], the IC50 in experiment [1] (setting [3]) was 0.1 to 0.5 µM; in experiment [2] (setting [4]), less than 0.01 µM.

As to `N[C@H](CO)c1ccc(-c2cc3c(N4CCN(C(=O)OC5COC5)CC4)ccnn3c2)cc1` [Compound 762], the results for the IC50 in experiment [1] (setting [3]) and in experiment [2] (setting [4]) were 0.1 to 0.5 µM and less than 0.01 µM, respectively.

Regarding `CCNC(=O)N1CCN(c2ccnn3cc(-c4ccc([C@]5(O)CCCN(C(C)C)C5)cc4)cc23)CC1` [Compound 591], the values for the IC50 in experiment [1] (setting [3]) and in experiment [2] (setting [4]) were less than 0.1 µM and less than 0.01 µM, respectively.
